Source: patent US8318217B2, “Compositions comprising an anti-inflammatory blend” (Johnson & Johnson Consumer Companies, Inc., priority 2009, dated 2012)
Converted amounts (≈) assume the structure as drawn. Where two headings read alike, the source gives them in different places.

Tests used:
[1] = system: NFκB; assay: NFκB-INHIBITION TEST (NF-κB gene reporter, TNFα-stimulated FB293 cells); format: cell-based, human; conditions: for NF-κB Gene Reporter Activation (Luminescence, L): 24 h; for NF-κB inhibition (in words): summary of Table 1; for NF-KB Activity (10 ug/ml): Tables 3a and 3b
Description: As used herein, “NFκB-inhibitor” means a compound that inhibits the cell transcription factor nuclear kappa-B (NFκB). […] The compound need not provide the recited Percent NFκB Inhibition at all concentrations from 1 microgram per milliliter to 100 micrograms per milliliter, but provides the recited Percent NFκB Inhibition at least one concentration in this range.
The NFκB-INHIBITION TEST is conducted in the following manner. FB293 cells, a stable transfected human epithelial cell line containing the gene reporter for NF-κB are used. They may be obtained from, e.g., Panomics (Fremont, Calif.). FB293 are plated at a density of 5×10^4 cells/mL in a suitable medium, e.g., Dulbecco's modified Eagle's medium (DMEM) supplemented with 10% fetal bovine serum (Invitrogen, San Diego, Calif.). The FB293 cells are stimulated with 100 ng/mL of Tumor Necrosis Factor-α (TNFα, available from Sigma-Aldrich of St Louis, Mo.) in the presence of the test sample. Separately, a control sample is tested wherein no test sample is applied. Following a 24-hour incubation at 37° C. with 5% CO2, cells are lysed with 40 μl of reporter lysis buffer (Promega, Madison, Wis.). A 20-μl aliquot of the lysate is assayed using a luciferase assay kit (Promega) and counted for 10 s in a Lmax luminometer (Molecular Devices, Sunnyvale, Calif.) with the data represented as the relative light unit/second. Percent NFκB Inhibition of the test sample is calculated as: NFκB Inhibition=[1−(Lsample/Lcontrol)]*100 where Lsample is the luminescence of the sample and Lcontrol is the luminescence of the control.
The NFκB-INHIBITION TEST described above was performed on test samples of Bay 11-7082 (Sigma-Aldrich, St. Louis, Mo.), Tetrahydrocurcuminoids CG (Sabinsa Corporation, Piscataway, N.J.), as well as various concentrations of 4-hexylresorcinol.
The NFκB-INHIBITION TEST described above was performed on a series of substituted resorcinols each having a concentration of 10 μg/ml.

[2] = system: IL-8; assay: IL-8 ASSAY (IL-8 cytokine release in KB cells); format: cell-based, human
Description: (§1) The IL-1α ASSAY was conducted as follows. KB cells were obtained from ATCC (ATCC#CCL-17, Manassas, Va.) and were plated in 96-well tissue culture treated plates at a density of 5000 cells/well in Dulbecco's modified Eagle's medium (DMEM) supplemented with 10% fetal bovine serum (Invitrogen Corp., San Diego, Calif.). After 48 hours, cells were treated with the agents described below at indicated concentrations for 24 hours, following which supernatants were collected and analyzed for IL-1α cytokine release using commercially available kits (Millipore Corp., Billerica, Mass.).
An IL-8 ASSAY was performed on a series of compositions using the method described in Example 5, except that the cytokine analyzed for was IL-8. Percent reduction in IL-8 was calculated for each sample. For samples containing a combination of an NF-κB inhibitor and an anti-inflammatory compound, the percent reduction in IL-8 relative to the percent reduction in IL-8 for the corresponding dose of anti-inflammatory compound is reported.

[3] = system: IL-1α; assay: IL-1α ASSAY (IL-1α cytokine release in KB cells); format: cell-based, human; conditions: for Increase in IL-1α over untreated control (normalized): normalized to 4-hexylresorcinol 20 μg/mL
Description: An IL-1α ASSAY was performed on a plurality of agents to investigate the release of the pro-inflammatory mediator, IL-1α cytokine, in human epithelial cells.
as §1
Further IL-1α ASSAYS as described in Example 5 were performed. For ease of comparison, reported increases in IL-1α for 4-hexylresorcinol, phloretin, and combinations thereof were normalized to 4-hexylresorcinol (20 μg/mL, Comparative Example 2). Reported increases in IL-1α for tetrahydrocurcuminoids, feverfew, and combinations thereof were normalized to tetrahydrocurcuminoids (20 μg/mL, Comparative Example 3).
Further IL-1α ASSAYS as described in Example 5 were performed. For ease of comparison, reported increases in IL-1α were normalized to 4-hexylresorcinol (20 μg/mL, Comparative Example 2).

[4] = system: Interleukin-2; assay: ANTI-INFLAMMATORY ASSAY (cytokine production by PHA-stimulated human lymphocytes); format: cell-based; conditions: PHA 10 μg/mL stimulated human leukocytes, 48 h
Description: The ANTI-INFLAMMATORY ASSAY assesses the ability of an agent to reduce the production of cytokines by human lymphocytes stimulated with the T-cell receptor (TCR) activating agent phytohaemagglutinin (PHA), and is conducted in the following manner. Human leukocytes are collected from a healthy adult […] via leukopheresis, and adjusted to a density of 1×10^6 cells/mL in serum free lymphocyte growth medium (ExVivo-15, Biowhittaker, Walkersville, Md.). PBLs are stimulated with 10 μg/mL PHA in the presence or absence of test samples following published methods (Hamamoto Y., et al. Exp Dermatol 2:231-235, 1993). Following a 48-hour incubation at 37° C. with 5% CO2, the supernatant is removed and evaluated for cytokine content using commercially available multiplex cytokine detection kit.

[5] = Homo sapiens, 10 μg/ml, series of substituted resorcinols, Table 2, read-out: Percent NF-κB Inhibition
[6] = Homo sapiens, read-out: Percent NF-κB Inhibition
[7] = Homo sapiens, read-out: Percent NFκB Inhibition

With `COc1cccc(OC)c1` [1,3-Dimethoxybenzene, reference compound] the inhibition at 10 µg/mL [1, 5] was -1.7%.
For `O=C(O)/C=C/c1ccc(O)cc1O` [2,4-DIHYDROXYCINNAMIC Acid], the inhibition at 10 µg/mL [1, 5] was -1.7%.
Work on `O=Nc1ccc(O)c(N=O)c1O` [2,4-Dinitrosorcinol] yielded an inhibition at 10 µg/mL [1, 6] of 51.8%.
Compound `CCC(=O)c1ccc(O)cc1O` [2′,4′-Dihydroxypropiophenone] has an inhibition at 10 µg/mL [1, 5] of -0.7%.
In the case of `COc1cccc(O)c1` [3-Methoxyphenol, reference compound], the inhibition at 10 µg/mL [1, 5] is reported as 0%.
With `CCCCCC(=O)c1ccc(O)cc1O` [4-Caproylresorcinol] the inhibition at 10 µg/mL [1, 5] was 10.2%.
`Oc1ccc(Cl)c(O)c1` [4-Chloroesorcinol] gave an inhibition at 10 µg/mL [1, 5] of 51.6%.
Compound `CCCCCCCCCCCCc1ccc(O)cc1O` [4-Dodecylresorcinol] has an inhibition at 10 µg/mL [1, 5] of 20.9%.
For `CCCCCCc1ccc(O)cc1O` [4-Hexylresorcinol], the “NF-κB Gene Reporter Activation (Luminescence, L)” value (shortened to “NF-κB Gene Reporter Activation”) ([1]; 1 μg/ml, TNFα 100 ng/ml stimulated FB293 cells) was 106.1 ± 1.9, the “NF-κB Gene Reporter Activation” value ([1]; 5 μg/ml, TNFα 100 ng/ml stimulated FB293 cells) was 55.1 ± 1.7 and the “NF-κB Gene Reporter Activation” value ([1]; 10 μg/ml, TNFα 100 ng/ml stimulated FB293 cells) was 29.3 ± 9.2. For the same compound, the “NF-κB Gene Reporter Activation” value ([1]; 50 μg/ml, TNFα 100 ng/ml stimulated FB293 cells, relative light unit/second per method) was 9.3 ± 0.9, the inhibition at 10 µg/mL [1, 6] was 92.4% and the inhibition at 1 µg/mL [1, 7] was 1.9%. It also gave an inhibition at 5 µg/mL [1, 7] of 50.9%, an inhibition at 10 µg/mL [1, 7] of 72.9% and an inhibition at 50 µg/mL [1, 7] of 91.4%. For the same compound, the “NF-κB inhibition (in words)” value [1] was “substantial reduction in NFκB activation”, the “Mean of IL-8 Release” value ([2]; single agent 10 μg/mL, untreated 84.46, Table 9) was 73.23 pg/mL and the “Mean of IL-8 Release” value ([2]; single agent 20 μg/mL, untreated 46.05, Table 8) was 14.58 pg/mL. The “Mean of IL-8 Release” value ([2]; single agent 20 μg/mL, untreated 84.46, Table 9) was 27.05 pg/mL, the “Mean of IL-1α Release” value ([3]; 20 μg/mL, 24 h, KB cells, untreated 0.72) was 21.34 pg/mL and the “Increase in IL-1α over untreated control (normalized)” value (from here on “Increase in IL-1α … (normalized)”) ([3]; single agent 20 μg/mL, Table 6) was 100. For the same compound, the “Increase in IL-1α … (normalized)” value ([3]; single agent 20 μg/mL, Table 7) was 100 and the “release of cytokine IL-1α (in words)” value ([3]; summary of Table 5) was “can increase the release of cytokine IL-1α”.
`CCCCCCCCc1ccc(O)cc1O` [4-Octylresorcinol] gave an inhibition at 10 µg/mL [1, 5] of 99.5%.
With `Cc1ccc(S(=O)(=O)/C=C/C#N)cc1` [Bay 11-7082, (E)-3-(4-methylphenylsulfonyl)-2-propenenitrile, reference compound] the “NF-κB Gene Reporter Activation” value ([1]; 25 uM, FB293 cells) was 11.3 ± 5.6, the inhibition at 25 µM ([1]; Homo sapiens, 25 uM, Table 1, read-out: Percent NFκB Inhibition) was 89.5% and the “NF-κB inhibition (in words)” value [1] was “strong NF-κB inhibition”.
For `CCCCCCCCCCCC1c2cc(c(O)cc2O)C(CCCCCCCCCCC)c2cc(c(O)cc2O)C(CCCCCCCCCCC)c2cc(c(O)cc2O)C(CCCCCCCCCCC)c2cc1c(O)cc2O` (stereo not shown) [C-Undecylcalix[4]-resorcinarene], the “Percent NF-κB Inhibition” value ([1]; 10 μg/ml, series of substituted resorcinols, Table 2) was 4.87%.
`C=CC(C)(C)c1cc(/C=C/C(=O)c2ccc(O)cc2)c(OC)cc1O` [Licochalcone] was tested, and the “NF-KB Activity (10 ug/ml)” value [1] was 0% and the “Anti-Inflammatory Activity (IC50 ug/ml)” value [4] was 54.1 µg/mL.
With `Oc1ccc(CCc2ccccc2)c(O)c1` [Phenethylresorinol] the inhibition at 10 µg/mL [1, 5] was 31.8%.
With `O=C(CCc1ccc(O)cc1)c1c(O)cc(O)cc1O` [Phloretin] the “NF-KB Activity (10 ug/ml)” value [1] was 0%, the IC50 ([4]; Leukocyte, read-out: Anti-Inflammatory Activity (IC50 ug/ml)) was 19.9 µg/mL (≈ 72.6 µM) and the “Increase in IL-1α … (normalized)” value ([3]; single agent 10 μg/mL, Table 6) was 3.82. For the same compound, the “Increase in IL-1α … (normalized)” value ([3]; single agent 50 μg/mL, Table 6) was 2.39 and the “Increase in IL-1α … (normalized)” value ([3]; single agent 100 μg/mL, Table 6) was 3.34.
`CC1CCCC(=O)CCCCCc2cc(O)cc(O)c2C(=O)O1` (stereo not shown) [Zearalanone] was tested, and the inhibition at 10 µg/mL [1, 6] was 51%.
`CC1CCCC(O)CCCCCc2cc(O)cc(O)c2C(=O)O1` (stereo not drawn) [β-Zearalanol] was tested, and the inhibition at 10 µg/mL [1, 6] was 76.6%.
`C[C@H]1CCC[C@@H](O)CCC/C=C/c2cc(O)cc(O)c2C(=O)O1` [β-Zearalenol] gave an inhibition at 10 µg/mL [1, 6] of 87.1%.
Madecassoside [reference compound] was tested, and the “NF-KB Activity (10 ug/ml)” value [1] was 0%, the “Anti-Inflammatory Activity (IC50 ug/ml)” value [4] was 77.3 µg/mL and the “Increase in IL-1α … (normalized)” value ([3]; single agent 10 μg/mL, Table 7) was 43.02. The “Increase in IL-1α … (normalized)” value ([3]; single agent 50 μg/mL, Table 7) was 41.59 and the “Increase in IL-1α … (normalized)” value ([3]; single agent 100 μg/mL, Table 7) was 44.24.
